Positions of bridges follow the written chain, without caps; N, C: chain ends. Non-standard residues stand in square brackets, D forms with d. Residues, ends and D or L forms follow the SMILES beside them. *: point of attachment. Trp(1-CH2COOH) = N[C@@H](Cc1cn(CC(=O)O)c2ccccc12)C(=O)O; BCN(endo) = O=C(OC[C@@H]1[C@@H]2CCC#CCC[C@@H]21)*; Phe(3-COOH) = N[C@@H](Cc1cccc(C(=O)O)c1)C(=O)O; NMePhe(3-Cl) = CN[C@@H](Cc1cccc(Cl)c1)C(=O)O; 3Pal(6-NH2) = Nc1ccc(C[C@H](N)C(=O)O)cn1; Lys(N3) = [N-]=[N+]=NCCCC[C@H](N)C(=O)O; NMeY = CN[C@@H](Cc1ccc(O)cc1)C(=O)O; 3Pal = N[C@@H](Cc1cccnc1)C(=O)O; 4Pal = N[C@@H](Cc1ccncc1)C(=O)O; PEG4 = NCCOCCOCCOCCOCCC(=O)O; Carboxymethyl = O=C(O)C*
These compounds were tested against T1, human transferrin receptor (hTfR) (Homo sapiens, UniProt P02786) (assay: Evaluation of molecular interaction between transferrin receptor (hTfR) and peptide using surface plasmon resonance (SPR)). Settings: KD class for binding to hTfR by SPR; peptide with the linker shown in the same line; 'low signal indicates no activity'; read-out: SPR.
T1 construct: made in house
T1 sequence (P02786 89-760 limits assumed): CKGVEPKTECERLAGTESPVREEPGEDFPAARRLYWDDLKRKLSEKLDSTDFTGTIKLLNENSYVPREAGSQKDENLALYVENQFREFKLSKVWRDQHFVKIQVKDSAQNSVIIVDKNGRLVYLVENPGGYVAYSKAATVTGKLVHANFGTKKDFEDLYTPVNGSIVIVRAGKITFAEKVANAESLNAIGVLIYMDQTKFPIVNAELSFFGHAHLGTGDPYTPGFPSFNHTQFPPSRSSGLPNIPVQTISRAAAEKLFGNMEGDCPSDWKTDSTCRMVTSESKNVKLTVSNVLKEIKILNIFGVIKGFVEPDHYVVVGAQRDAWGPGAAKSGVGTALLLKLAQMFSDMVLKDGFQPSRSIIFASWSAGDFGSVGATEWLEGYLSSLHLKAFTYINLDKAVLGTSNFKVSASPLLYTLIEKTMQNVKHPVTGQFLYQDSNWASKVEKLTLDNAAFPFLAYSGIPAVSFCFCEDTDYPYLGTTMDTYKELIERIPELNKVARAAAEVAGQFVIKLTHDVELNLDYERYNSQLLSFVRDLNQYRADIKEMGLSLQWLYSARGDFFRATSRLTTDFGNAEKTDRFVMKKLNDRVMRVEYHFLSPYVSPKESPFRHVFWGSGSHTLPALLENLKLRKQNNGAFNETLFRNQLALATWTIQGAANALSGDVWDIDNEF
Type: binding
How it was run: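 SPR, single-cycle kinetics; hTfR dimer on NTA chip via Ni capture plus EDC/NHS coupling. Analyte peptide 100, 50, 25, 10, 5 nM. Running buffer: 10 mM HEPES pH 8.0, 150 mM NaCl, 0.05% Tween 20, 0.1% BSA, 1.0% DMSO. KD by least-squares fit.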
In the case of `CC[C@H](C)[C@@H]1NC(=O)[C@H](Cc2ccc(OCC(=O)O)cc2)NC(=O)[C@H](Cc2ccc(O)cc2)NC(=O)[C@H](CC(N)=O)NC(=O)[C@H](Cc2cn(CC(=O)O)c3ccccc23)NC(=O)[C@H](C(C)C)NC(=O)[C@H](Cc2cccc(Cl)c2)N(C)C(=O)[C@H](C(C)C)NC(=O)[C@H](C)NC(=O)CSC[C@@H](C(=O)NCC(=O)N[C@@H](CCCCN=[N+]=[N-])C(N)=O)NC(=O)[C@H](Cc2ccc(O)cc2)N(C)C(=O)[C@H](Cc2ccccc2)NC(=O)[C@H](CCC(N)=O)NC(=O)[C@H](CCCNC(=N)N)NC(=O)[C@H]([C@@H](C)CC)NC1=O` [894_3177], the Kd is reported as 1 to 100 nM.
With `CC[C@H](C)[C@@H]1NC(=O)[C@H](Cc2ccc(OCC(=O)O)cc2)NC(=O)[C@H](Cc2ccc(O)cc2)NC(=O)[C@H](CC(N)=O)NC(=O)[C@H](Cc2cn(CC(=O)O)c3ccccc23)NC(=O)[C@H](C(C)C)NC(=O)[C@H](Cc2cccc(Cl)c2)N(C)C(=O)[C@H](C(C)C)NC(=O)[C@H](C)NC(=O)CSC[C@@H](C(=O)NCC(=O)N[C@@H](CCCCN=[N+]=[N-])C(N)=O)NC(=O)[C@H](Cc2ccc(O)cc2)N(C)C(=O)[C@H](Cc2ccccc2)NC(=O)[C@H](CCC(N)=O)NC(=O)[C@H](CCC(N)=O)NC(=O)[C@H]([C@@H](C)CC)NC1=O` [894_3178] ({CH2CO}-AV[NMePhe(3-Cl)]V[Trp(1-CH2COOH)]NYY(Carboxymethyl)IIQQF[NMeY]CG[Lys(N3)]-NH2; thioether N-15) the Kd was 1 to 100 nM.
In the case of `CC[C@H](C)[C@@H]1NC(=O)[C@H](Cc2cccnc2)NC(=O)[C@H](Cc2ccc(O)cc2)NC(=O)[C@H](CC(N)=O)NC(=O)[C@H](Cc2cn(CC(=O)O)c3ccccc23)NC(=O)[C@H](C(C)C)NC(=O)[C@H](Cc2cccc(Cl)c2)N(C)C(=O)[C@H](C(C)C)NC(=O)[C@H](C)NC(=O)CSC[C@@H](C(=O)NCC(=O)N[C@@H](CCCCN=[N+]=[N-])C(N)=O)NC(=O)[C@H](Cc2ccc(O)cc2)N(C)C(=O)[C@H](Cc2ccncc2)NC(=O)[C@H](CCCNC(=N)N)NC(=O)[C@H](CCCNC(=N)N)NC(=O)[C@H]([C@@H](C)CC)NC1=O` [894_3185] ({CH2CO}-AV[NMePhe(3-Cl)]V[Trp(1-CH2COOH)]NY[3Pal]IIRR[4Pal][NMeY]CG[Lys(N3)]-NH2; thioether N-15), the Kd is reported as 1 to 100 nM.
`CC[C@H](C)[C@@H]1NC(=O)[C@H](Cc2cccnc2)NC(=O)[C@H](Cc2ccc(N)nc2)NC(=O)[C@H](CC(N)=O)NC(=O)[C@H](Cc2cn(CC(=O)O)c3ccccc23)NC(=O)[C@H](C(C)C)NC(=O)[C@H](Cc2cccc(Cl)c2)N(C)C(=O)[C@H](C(C)C)NC(=O)[C@H](C)NC(=O)CSC[C@@H](C(=O)NCC(=O)N[C@@H](CCCCN=[N+]=[N-])C(N)=O)NC(=O)[C@H](Cc2ccc(O)cc2)N(C)C(=O)[C@H](Cc2ccncc2)NC(=O)[C@H](CCCNC(=N)N)NC(=O)[C@H](CCCNC(=N)N)NC(=O)[C@H]([C@@H](C)CC)NC1=O` [894_3186] ({CH2CO}-AV[NMePhe(3-Cl)]V[Trp(1-CH2COOH)]N[3Pal(6-NH2)][3Pal]IIRR[4Pal][NMeY]CG[Lys(N3)]-NH2; thioether N-15) gave a Kd of 1 to 100 nM.
In the case of `CC[C@H](C)[C@@H]1NC(=O)[C@H](Cc2ccc(OC)cc2)NC(=O)[C@H](Cc2ccc(N)nc2)NC(=O)[C@H](CC(N)=O)NC(=O)[C@H](Cc2cn(CC(=O)O)c3ccccc23)NC(=O)[C@H](C(C)C)NC(=O)[C@H](Cc2cccc(Cl)c2)N(C)C(=O)[C@H](C(C)C)NC(=O)[C@H](C)NC(=O)CSC[C@@H](C(=O)NCC(=O)N[C@@H](CCCCN=[N+]=[N-])C(N)=O)NC(=O)[C@H](Cc2ccc(O)cc2)N(C)C(=O)[C@H](Cc2ccncc2)NC(=O)[C@H](CCCNC(=N)N)NC(=O)[C@H](CCCNC(=N)N)NC(=O)[C@H]([C@@H](C)CC)NC1=O` [894_3187], the Kd is reported as 1 to 100 nM.
With `CC[C@H](C)[C@@H]1NC(=O)[C@H](Cc2cccnc2)NC(=O)[C@H](Cc2ccc(O)cc2)NC(=O)[C@H](CC(N)=O)NC(=O)[C@H](Cc2c[nH]c3ccccc23)NC(=O)[C@H](C(C)C)NC(=O)[C@H](Cc2cccc(Cl)c2)N(C)C(=O)[C@H](C(C)C)NC(=O)[C@H](C)NC(=O)CSC[C@@H](C(=O)NCC(=O)N[C@@H](CCCCN=[N+]=[N-])C(N)=O)NC(=O)[C@H](Cc2ccc(O)cc2)N(C)C(=O)[C@H](Cc2ccncc2)NC(=O)[C@H](CCCNC(=N)N)NC(=O)[C@H](CCCNC(=N)N)NC(=O)[C@H]([C@@H](C)CC)NC1=O` [894_3188] ({CH2CO}-AV[NMePhe(3-Cl)]VWNY[3Pal]IIRR[4Pal][NMeY]CG[Lys(N3)]-NH2; thioether N-15) the Kd was 1 to 100 nM.
`CC[C@H](C)[C@@H]1NC(=O)[C@H](Cc2cccnc2)NC(=O)[C@H](Cc2ccc(N)nc2)NC(=O)[C@H](CC(N)=O)NC(=O)[C@H](Cc2c[nH]c3ccccc23)NC(=O)[C@H](C(C)C)NC(=O)[C@H](Cc2cccc(Cl)c2)N(C)C(=O)[C@H](C(C)C)NC(=O)[C@H](C)NC(=O)CSC[C@@H](C(=O)NCC(=O)N[C@@H](CCCCN=[N+]=[N-])C(N)=O)NC(=O)[C@H](Cc2ccc(O)cc2)N(C)C(=O)[C@H](Cc2ccncc2)NC(=O)[C@H](CCCNC(=N)N)NC(=O)[C@H](CCCNC(=N)N)NC(=O)[C@H]([C@@H](C)CC)NC1=O` [894_3189] ({CH2CO}-AV[NMePhe(3-Cl)]VWN[3Pal(6-NH2)][3Pal]IIRR[4Pal][NMeY]CG[Lys(N3)]-NH2; thioether N-15) was tested, and the Kd was 1 to 100 nM.
With `CC[C@H](C)[C@@H]1NC(=O)[C@H](Cc2ccc(OC)cc2)NC(=O)[C@H](Cc2ccc(N)nc2)NC(=O)[C@H](CC(N)=O)NC(=O)[C@H](Cc2c[nH]c3ccccc23)NC(=O)[C@H](C(C)C)NC(=O)[C@H](Cc2cccc(Cl)c2)N(C)C(=O)[C@H](C(C)C)NC(=O)[C@H](C)NC(=O)CSC[C@@H](C(=O)NCC(=O)N[C@@H](CCCCN=[N+]=[N-])C(N)=O)NC(=O)[C@H](Cc2ccc(O)cc2)N(C)C(=O)[C@H](Cc2ccncc2)NC(=O)[C@H](CCCNC(=N)N)NC(=O)[C@H](CCCNC(=N)N)NC(=O)[C@H]([C@@H](C)CC)NC1=O` [894_3190] the Kd was 1 to 100 nM.
With `CC[C@H](C)[C@@H]1NC(=O)[C@H](Cc2ccc(OCC(=O)O)cc2)NC(=O)[C@H](Cc2ccc(O)cc2)NC(=O)[C@H](CC(N)=O)NC(=O)[C@H](Cc2cn(CC(=O)O)c3ccccc23)NC(=O)[C@H](C(C)C)NC(=O)[C@H](Cc2cccc(Cl)c2)N(C)C(=O)[C@H](C(C)C)NC(=O)[C@H](C)NC(=O)CSC[C@@H](C(=O)NCC(=O)N[C@H](CCC(=O)O)C(=O)N[C@H](CCC(=O)O)C(=O)N[C@H](CCC(=O)O)C(=O)N[C@H](CO)C(=O)N[C@H](CO)C(=O)N[C@@H](CCCCNC(=O)OC[C@@H]2[C@@H]3CCC#CCC[C@@H]32)C(N)=O)NC(=O)[C@H](Cc2ccc(O)cc2)N(C)C(=O)[C@H](Cc2ccccc2)NC(=O)[C@H](CCCNC(=N)N)NC(=O)[C@H](CCCNC(=N)N)NC(=O)[C@H]([C@@H](C)CC)NC1=O` [894_3197] the Kd was < 1 nM.
`CC[C@H](C)[C@@H]1NC(=O)[C@H](Cc2ccc(OCC(=O)O)cc2)NC(=O)[C@H](Cc2ccc(O)cc2)NC(=O)[C@H](CC(N)=O)NC(=O)[C@H](Cc2cn(CC(=O)O)c3ccccc23)NC(=O)[C@H](C(C)C)NC(=O)[C@H](Cc2cccc(Cl)c2)N(C)C(=O)[C@H](C(C)C)NC(=O)[C@H](C)NC(=O)CSC[C@@H](C(=O)NCC(=O)N[C@H](CO)C(=O)N[C@H](CO)C(=O)N[C@H](CO)C(=O)N[C@H](CO)C(=O)N[C@H](CO)C(=O)N[C@@H](CCCCNC(=O)OC[C@@H]2[C@@H]3CCC#CCC[C@@H]32)C(N)=O)NC(=O)[C@H](Cc2ccc(O)cc2)N(C)C(=O)[C@H](Cc2ccccc2)NC(=O)[C@H](CCCNC(=N)N)NC(=O)[C@H](CCCNC(=N)N)NC(=O)[C@H]([C@@H](C)CC)NC1=O` [894_3198] ({CH2CO}-AV[NMePhe(3-Cl)]V[Trp(1-CH2COOH)]NYY(Carboxymethyl)IIRRF[NMeY]CG[dS][dS][dS][dS][dS]K(BCN(endo))-NH2; thioether N-15) was tested, and the Kd was < 1 nM.
`CC[C@H](C)[C@@H]1NC(=O)[C@H](Cc2ccc(OCC(=O)O)cc2)NC(=O)[C@H](Cc2ccc(O)cc2)NC(=O)[C@H](CC(N)=O)NC(=O)[C@H](Cc2cn(CC(=O)O)c3ccccc23)NC(=O)[C@H](C(C)C)NC(=O)[C@H](Cc2cccc(Cl)c2)N(C)C(=O)[C@H](C(C)C)NC(=O)[C@H](C)NC(=O)CSC[C@@H](C(=O)NCC(=O)N[C@@H](CCCCNC(=O)OC[C@@H]2[C@@H]3CCC#CCC[C@@H]32)C(N)=O)NC(=O)[C@H](Cc2ccc(O)cc2)N(C)C(=O)[C@H](Cc2ccccc2)NC(=O)[C@H](CCCNC(=N)N)NC(=O)[C@H](CCC(=O)NCCOCCOCCOCCOCCOCCOCCOCCOC)NC(=O)[C@H]([C@@H](C)CC)NC1=O` [894_3199] was tested, and the Kd was < 1 nM.
`CC[C@H](C)[C@@H]1NC(=O)[C@H](Cc2ccc(O)cc2)NC(=O)[C@H](Cc2ccc(O)cc2)NC(=O)[C@H](CC(N)=O)NC(=O)[C@H](Cc2c[nH]c3ccccc23)N(C)C(=O)[C@H](C(C)C)NC(=O)[C@H](Cc2ccccc2)N(C)C(=O)[C@H](C(C)C)NC(=O)[C@H](C)NC(=O)CSC[C@@H](C(=O)NCC(=O)N[C@H](CO)C(=O)N[C@H](CO)C(=O)N[C@H](CO)C(=O)N[C@H](CO)C(=O)N[C@H](CO)C(=O)N[C@@H](CCCCN=[N+]=[N-])C(N)=O)NC(=O)[C@H](Cc2ccc(O)cc2)N(C)C(=O)[C@H](Cc2ccc(O)cc2)NC(=O)[C@H](CCCNC(=N)N)NC(=O)[C@H](CCCCN)NC(=O)[C@H]([C@@H](C)CC)NC1=O` [894_3200] was tested, and the Kd was < 1 nM.
In the case of `CC[C@H](C)[C@@H]1NC(=O)[C@H](Cc2cccnc2)NC(=O)[C@H](Cc2ccc(N)nc2)NC(=O)[C@H](CC(N)=O)NC(=O)[C@H](Cc2c[nH]c3ccccc23)NC(=O)[C@H](C(C)C)NC(=O)[C@H](Cc2cccc(Cl)c2)N(C)C(=O)[C@H](C(C)C)NC(=O)[C@H](C)NC(=O)CSC[C@@H](C(=O)NCCOCCOCCOCCOCCC(N)=O)NC(=O)[C@H](Cc2ccc(O)cc2)N(C)C(=O)[C@H](Cc2cccc(C(=O)O)c2)NC(=O)[C@H](CCCNC(=N)N)NC(=O)[C@H](CCCNC(=N)N)NC(=O)[C@H]([C@@H](C)CC)NC1=O` [SEQ ID No. 198] ({CH2CO}-AV[NMePhe(3-Cl)]VWN[3Pal(6-NH2)][3Pal]IIRR[Phe(3-COOH)][NMeY]C[PEG4]-NH2; thioether N-15), the Kd is reported as 1 to 100 nM.
